Source: patent publication US10696898B2, “Reverse photochromic compound” (FUJIFILM Wako Pure Chemical Corporation, priority 2017, dated 2020)

What was measured:
[1] = Evaluation of solubility and compatibility of compound 8 (Experiment Example 8); assay type: physicochemical; settings: 20° C.
Description: The solubility and the compatibility of the compound 8 obtained in Example 2 were evaluated in the following manner.
In other words, 100 mg of the compound 8 was weighed in a glass container (manufactured by NICHIDEN RIKA GLASS CO., LTD.), 10 mg of various organic solvents were added thereto in a state in which the temperature thereof was maintained to 20° C., and the solution was stirred for 10 minutes. In a case where the solid content remained, the operation of adding 10 mg of the organic solvents and stirring the solution for 10 minutes was repeated, and the amount (A mg) of the organic solvents to be used at the time of complete dissolution of the compound 8 was measured. The solubility (%) was acquired based on the value of A mg using the following equation. Solubility (%)=100 mg/(100 mg+A mg)×100

[2] = Evaluation of solvent dependence of reverse photochromic characteristics of compound 8 (Experiment Example 5); assay type: physicochemical
Description: The solvent dependence of the reverse photochromic characteristics of the compound 8 was evaluated in the following manner.
Various solutions of the compound 8 obtained in Example 2 were prepared using the following methods (1-1) to (1-7).
(§1) First, 1.2 mg (8.7×10^−7 mol) of the compound 8 was weighed in a vial bottle (glass bottle), and 9 mL of methanol was added thereto to prepare a solution having a concentration of 1.0×10^−4 mol/L. The obtained solution was poured into another vial bottle (glass bottle) and further diluted with methanol to prepare a methanol solution containing the compound 8 with a concentration of 5.6×10^0.5 mol/L.
as §1, with “toluene” for “methanol”, “9.3×10^−5” for “1.0×10^−4”, “1.9×10^−5” for “5.6×10^0.5”
as §1, with “10” for “9”, “acetonitrile” for “methanol”, “8.7×10^−5” for “1.0×10^−4”, “an acetonitrile” for “a methanol”, “2.2×10^−5” for “5.6×10^0.5”
as §1, with “1.1” for “1.2”, “(8.0×10^7′” for “(8.7×10^−7”, “10” for “9”, “chloroform” for “methanol”, “8.0×10^−5” for “1.0×10^−4”, “1.8×10^−5” for “5.6×10^0.5”
First, 1.5 mg […] of the compound 8 was weighed in a vial bottle (glass bottle), and 10 mL of o-dichlorobenzene was added thereto to prepare a solution having a concentration of 1.1×10^−4 mol/L. The obtained solution was poured into another vial bottle (glass bottle) and further diluted with o-dichlorobenzene to prepare an o-dichlorobenzene solution containing the compound 8 with a concentration of 2.2×10^−5 mol/L.
First, 1.3 mg (9.7×10^−7 mol) of the compound 8 was weighed in a vial bottle (glass bottle), and 10 mL of 2-propanol was added thereto to prepare a saturated solution. The supernatant of the obtained saturated solution was poured into another vial bottle (glass bottle) and further diluted with 2-propanol by three times to prepare a 2-propanol solution containing the compound 8.
as §1, with “1.4” for “1.2”, “(1.0×10^0.6” for “(8.7×10^−7”, “10” for “9”, “chlorobenzene” for “methanol”, “2.0×10^−5” for “5.6×10^0.5”
Various solutions containing the compound 8 obtained in the preparation (1) were put into a quartz cell having an optical path length of 1 cm together with a stirring bar, the solutions were irradiated with light while being stirred for 5 minutes under a condition of an irradiation intensity of 1 SUN (AM 1.5, 1000 W/m^2) using a solar simulator (product name: LAX-C100, manufactured by Asahi Spectra Co., Ltd.), and the absorbance of each solution at the maximum absorption wavelength was measured using a spectrophotometer (product name: V-670, manufactured by Jasco Corporation). Thereafter, the quartz cell was stored in a dark place, the absorbance at every fixed interval time was measured, and the temporal change of the absorbance of each solution at the maximum absorption wavelength was confirmed. […]

Solubility (%) ([1]; Epoxy resin (jER ®)): 11% | Solubility (%) ([1]; organic solvent: 1-Methoxy-2-propanol (PGME)): 38% | Solubility (%) ([1]; organic solvent: Dibutyl sebacate (DBS)): 20% | Solubility (%) ([1]; organic solvent: Ethyl acetate (AcOEt)): 50% | Solubility (%) ([1]; organic solvent: Methyl ethyl ketone (MEK)): 50% | Solubility (%) ([1]; organic solvent: Methyl methacrylate (MMA)): 50% | Solubility (%) ([1]; organic solvent: Toluene, 100 mg/(100 mg+A mg)×100): 50% | Solubility (%) ([1]; organic solvent: Triethyl phosphate (TEP)): 31% | maximum absorption wavelength ([2]; 2-propanol solution): 639 nm | maximum absorption wavelength ([2]; acetonitrile solution): 626 nm | maximum absorption wavelength ([2]; chlorobenzene solution): 659 nm | maximum absorption wavelength ([2]; chloroform solution): 650 nm | maximum absorption wavelength ([2]; methanol solution): 632 nm | maximum absorption wavelength ([2]; o-dichlorobenzene solution): 659 nm | maximum absorption wavelength ([2]; toluene solution): 653 nm
Structure (SMILES): C=C(C)C(=O)OCCOC(=O)c1ccccc1-c1c2ccc(=[N+](CC)CC)cc-2oc2c1CCC/C2=C\c1ccc2c(c1)c1ccccc1n2CC [compound 8]
